Results as given in patent US5700799A, “Oxazolidinone antimicrobials containing substituted diazine moieties” (Pharmacia & Upjohn Company, priority 1996, dated 1997).
Several values for one entry are separate records, joined by “and”; a condition that tells them apart may be missing. Identical values can stand only once. Like-named read-outs stand apart in the source and are kept apart here.

Columns and labels:
S. aureus UC 9213 = assay: Murine Assay procedure: in vivo antimicrobial activity, survival of infected mice (S. aureus UC 9213); design: species or system Staphylococcus aureus (infected female mice); conditions: dosed 1 h and 5 h after i.p. infection, survival daily for six days; for ED50: Staphylococcus aureus, UC9213, 144 h, oral, probit
Method: (§1) Antimicrobial activity was tested in vivo using the Murine Assay procedure. Groups of female mice (six mice of 18-20 grams each) were injected intraperitoneally with bacteria which were thawed just prior to use and suspended in brain heart infusion with 4% brewers yeast (Staphylococcus aureus) or brain heart infusion (Streptococcus species). Antibiotic treatment at six dose levels per drug was administered one hour and five hours after affection by either oral intubation or subcutaneous routes. Survival was observed daily for six days. ED50 values based on mortality ratios were calculated using probit analysis. The subject compounds were compared against well-known antimicrobial as controls.

S. aureus UC 6685 = assay: Murine Assay procedure: in vivo antimicrobial activity, survival of infected mice (S. aureus UC 6685); design: species or system Staphylococcus aureus (infected female mice); conditions: Staphylococcus aureus
Method: as §1

microbial infections = assay: treatment of microbial infections (relative activity, test not given)
S. pyogenes UC 152 = assay: Murine Assay procedure: in vivo antimicrobial activity, survival of infected mice (S. pyogenes UC 152); design: species or system S. pyogenes (infected female mice); conditions: Streptococcus pyogenes, UC152, 144 h, oral, dosed 1 h and 5 h after i.p. infection, survival daily for six days
S. aureus UC 9271 = assay: Murine Assay procedure: in vivo antimicrobial activity, survival of infected mice (S. aureus UC 9271); design: species or system Staphylococcus aureus (infected female mice); conditions: Staphylococcus aureus
Method: as §1

Q: With `CC(=O)CCC(=O)N1CCN(c2ccc(N3CC(CNC(C)=O)OC3=O)cc2F)CC1` (racemic) [Example 10, (±)-N-[[3-[4-[4-(1,4-Dioxopentyl)-1-piperazinyl]-3-fluorophenyl]-2-oxo-5-oxazolidinyl]methyl)Acetamide] as the compound, how does the ED50 (S. aureus UC 9213) read?
A: Its ED50 is 9.4 mg/kg.

Q: `O=C(O)c1cn(C2CC2)c2cc(N3CCNCC3)c(F)cc2c1=O` [Ciprofloxacin, reference compound] was tested. Which ED50 (S. aureus UC 6685; UC6685, sc, 144 h, read-out: Control, ED50, SC) did it give?
A: The ED50 was 6.6 mg/kg.

Q: `COC(=O)N1CCN(c2ccc(N3CC(CNC(C)=O)OC3=O)cc2F)CC1` (stereo not shown) [Example 1, 4-(4-(5-((Acetylamino)methyl)-2-oxo-3-oxazolidinyl)-2-fluorophenyl)-1-piperazinecarboxylic acid, methyl ester] was tested. Which “activity relative to the Formula I compounds” value (microbial infections) did it give?
A: Its value is “most active”.

Q: What about the ED50 (S. pyogenes UC 152) of the same compound?
A: Its ED50 is 2.3 mg/kg.

Q: What about the ED50 (S. aureus UC 9271; UC9271, 144 h, S. aureus UC 9271, oral, dosed 1 h and 5 h after i.p. infection, survival daily for six days, read-out: ED50, PO) of the same compound?
A: The ED50 was 4 mg/kg.

Q: What about the ED50 (S. aureus UC 6685; UC6685, 144 h, S. aureus UC 6685, oral, dosed 1 h and 5 h after i.p. infection, survival daily for six days, read-out: ED50, PO) of the same compound?
A: The ED50 was 4 mg/kg.

Q: What about the ED50 (S. aureus UC 9213) of the same compound?
A: Its ED50 is 3.8 mg/kg.

Q: Which ED50 (S. aureus UC 9213) does the source give for `COC(=O)N1CCN(c2ccc(N3CC(CNC(C)=O)OC3=O)cc2)CC1` (stereo not shown) [Example 3, 4-(4-(5-((Acetylamino)methyl)-2-oxo-3-oxazolidinyl)phenyl)-1-piperazinecarboxylic acid, methyl ester] here?
A: The ED50 was 10.4 mg/kg.

Q: Which ED50 (S. aureus UC 9213) does the source give for `CC(=O)NCC1CN(c2ccc(N3CCN(CCC#N)CC3)c(F)c2)C(=O)O1` (stereo not shown) [Example 5, N-((3-(4-(3-Fluoro-4-(4-(2-Cyanoethyl)-1-piperazinyl))phenyl)-2-oxo-5-oxazolidinyl)methyl)-acetamide] here?
A: The ED50 was 10 mg/kg.

Q: How did the ED50 (S. aureus UC 9213) turn out when `CC(=O)NCC1CN(c2ccc(N3CCN(C(=O)OCCO)CC3)c(F)c2)C(=O)O1` (stereo not shown) [Example 6, 4-(4-(5-((acetylamino)methyl)-2-oxo-3-oxazolidinyl)-2-fluorophenyl)-1-piperazinecarboxylic acid, 2-hydroxyethyl ester] was run?
A: The ED50 was 12 mg/kg.

Q: How did the ED50 (S. aureus UC 9213) turn out when `CC(=O)NCC1CN(c2ccc(N3CCN(C(=O)c4ccccc4)CC3)c(F)c2)C(=O)O1` (stereo not shown) [Example 7, N-((3-(4-(3-Fluoro-4-((benzoyl)-1-piperazinyl))phenyl)-2-oxo-5-oxazolidinyl)methyl)-acetamide] was run?
A: The ED50 was 12 mg/kg.

Q: `CC(=O)NCC1CN(c2ccc(N3CCN(CC#N)CC3)c(F)c2)C(=O)O1` (stereo not shown) [Example 9] was tested. Which “activity relative to the Formula I compounds” value (microbial infections) did it give?
A: The value was “most active”.

Q: Which ED50 (S. aureus UC 9213) does the source give for `COCCN1CCN(c2ccc(N3C[C@H](CNC(C)=O)OC3=O)cc2F)CC1` [Example 36, (S)-N-[[3-[3-fluoro-4-[4-(2-methoxyethyl)-1-piperazinyl]phenyl]-2-oxo-5-oxazolidinyl]methyl]acetamide] here?
A: The ED50 was 7.9 mg/kg.

Q: For `COCCN1CCN(c2c(F)cc(N3C[C@H](CNC(C)=O)OC3=O)cc2F)CC1` [Example 37, (S)-N-[[3-[3,5-difluoro-4-[4-(2-methoxyethyl)-1-piperazinyl]phenyl]-2-oxo-5-oxazolidinyl]methyl]acetamide], which ED50 (S. aureus UC 9213) is on record?
A: The ED50 was 12.6 mg/kg.

Q: Which results are given for `CN[C@H](CC(C)C)C(=O)N[C@H]1C(=O)N[C@@H](CC(N)=O)C(=O)N[C@H]2C(=O)N[C@H]3C(=O)N[C@H](C(=O)N[C@H](C(=O)O)c4cc(O)cc(O)c4-c4cc3ccc4O)[C@H](O)c3ccc(c(Cl)c3)Oc3cc2cc(c3O[C@@H]2O[C@H](CO)[C@@H](O)[C@H](O)[C@H]2O[C@H]2C[C@](C)(N)[C@H](O)[C@H](C)O2)Oc2ccc(cc2Cl)[C@H]1O` [Vancomycin, reference compound]?
A: ED50 (S. aureus UC 9271; UC9271, sc, 144 h, read-out: Control, ED50, SC): 5.9 mg/kg; Control, ED50, SC (S. aureus UC 9213; control antibiotic, subcutaneous, 8640 min): 1.8 mg/kg and 1.9 mg/kg
